How the values were obtained:
[1] = system: HCT-116; assay: Growth inhibition of human HCT-116 cells at 10 uM relative to control; assay type: functional; conditions: read-out: GI
[2] = system: SF-268; assay: Growth inhibition of human SF-268 cells at 10 uM relative to control; assay type: functional; conditions: read-out: GI
[3] = system: Hs-578T; assay: Growth inhibition of human Hs-578T cells at 10 uM relative to control; assay type: functional; conditions: read-out: GI
[4] = system: ACHN; assay: Growth inhibition of human ACHN cells at 10 uM relative to control; assay type: functional; conditions: read-out: GI
[5] = system: SF-295; assay: Growth inhibition of human SF-295 cells at 10 uM relative to control; assay type: functional; conditions: read-out: GI
[6] = system: M14; assay: Growth inhibition of human M14 cells at 10 uM relative to control; assay type: functional; conditions: read-out: GI
[7] = system: MDA-MB-435; assay: Growth inhibition of human MDA-MB-435 cells at 10 uM relative to control; assay type: functional; conditions: read-out: GI
[8] = system: HCC 2998; assay: Growth inhibition of human HCC 2998 cells at 10 uM relative to control; assay type: functional; conditions: read-out: GI
[9] = system: UO-31; assay: Growth inhibition of human UO-31 cells at 10 uM relative to control; assay type: functional; conditions: read-out: GI
[10] = target: DNA; assay: Displacement of methyl green from DNA (unknown origin) assessed as DNA intercalation after 24 hrs by colorimetric assay; assay type: nucleic-acid assay
[11] = system: NCI-H522; assay: Growth inhibition of human NCI-H522 cells at 10 uM relative to control; assay type: functional; conditions: read-out: GI
[12] = system: 786-0; assay: Growth inhibition of human 786-0 cells at 10 uM relative to control; assay type: functional; conditions: read-out: GI
[13] = system: LOX IMVI; assay: Growth inhibition of human LOX IMVI cells at 10 uM relative to control; assay type: functional; conditions: read-out: GI
[14] = system: OVCAR-8; assay: Growth inhibition of human OVCAR-8 cells at 10 uM relative to control; assay type: functional; conditions: read-out: GI
[15] = system: MDA-MB-468; assay: Growth inhibition of human MDA-MB-468 cells at 10 uM relative to control; assay type: functional; conditions: read-out: GI
[16] = system: HCT-15; assay: Growth inhibition of human HCT-15 cells at 10 uM relative to control; assay type: functional; conditions: read-out: GI
[17] = system: SK-MEL-5; assay: Growth inhibition of human SK-MEL-5 cells at 10 uM relative to control; assay type: functional; conditions: read-out: GI
[18] = system: NCI-H460; assay: Growth inhibition of human NCI-H460 cells at 10 uM relative to control; assay type: functional; conditions: read-out: GI
[19] = system: BT-549; assay: Growth inhibition of human BT-549 cells at 10 uM relative to control; assay type: functional; conditions: read-out: GI
[20] = system: SNB-19; assay: Growth inhibition of human SNB-19 cells at 10 uM relative to control; assay type: functional; conditions: read-out: GI
[21] = system: RXF 393; assay: Growth inhibition of human RXF 393 cells at 10 uM relative to control; assay type: functional; conditions: read-out: GI
[22] = system: NCI-H226; assay: Growth inhibition of human NCI-H226 cells at 10 uM relative to control; assay type: functional; conditions: read-out: GI
[23] = system: SR; assay: Growth inhibition of human SR cells at 10 uM relative to control; assay type: functional; conditions: read-out: GI
[24] = system: SF-539; assay: Growth inhibition of human SF-539 cells at 10 uM relative to control; assay type: functional; conditions: read-out: GI
[25] = system: NCI-H23; assay: Growth inhibition of human NCI-H23 cells at 10 uM relative to control; assay type: functional; conditions: read-out: GI
[26] = system: HOP-62; assay: Growth inhibition of human HOP-62 cells at 10 uM relative to control; assay type: functional; conditions: read-out: GI
[27] = system: A498; assay: Growth inhibition of human A498 cells at 10 uM relative to control; assay type: functional; conditions: read-out: GI
[28] = system: TK-10; assay: Growth inhibition of human TK-10 cells at 10 uM relative to control; assay type: functional; conditions: read-out: GI
[29] = system: HL-60(TB); assay: Growth inhibition of human HL-60(TB) cells at 10 uM relative to control; assay type: functional; conditions: read-out: GI
[30] = system: MDA-MB-231; assay: Growth inhibition of human MDA-MB-231 cells at 10 uM relative to control; assay type: functional; conditions: read-out: GI
[31] = system: K562; assay: Growth inhibition of human K562 cells at 10 uM relative to control; assay type: functional; conditions: read-out: GI
[32] = system: PC-3; assay: Growth inhibition of human PC-3 cells at 10 uM relative to control; assay type: functional; conditions: read-out: GI
[33] = system: MCF7; assay: Growth inhibition of human MCF7 cells at 10 uM relative to control; assay type: functional; conditions: read-out: GI
[34] = system: COLO 205; assay: Growth inhibition of human COLO 205 cells at 10 uM relative to control; assay type: functional; conditions: read-out: GI
[35] = system: KM12; assay: Growth inhibition of human KM12 cells at 10 uM relative to control; assay type: functional; conditions: read-out: GI
[36] = system: HT-29; assay: Growth inhibition of human HT-29 cells at 10 uM relative to control; assay type: functional; conditions: read-out: GI
[37] = system: SNB-75; assay: Growth inhibition of human SNB-75 cells at 10 uM relative to control; assay type: functional; conditions: read-out: GI
[38] = system: Malme-3M; assay: Growth inhibition of human Malme-3M cells at 10 uM relative to control; assay type: functional; conditions: read-out: GI
[39] = system: HOP-92; assay: Growth inhibition of human HOP-92 cells at 10 uM relative to control; assay type: functional; conditions: read-out: GI
[40] = system: RPMI-8226; assay: Growth inhibition of human RPMI-8226 cells at 10 uM relative to control; assay type: functional; conditions: read-out: GI
[41] = system: SN12C; assay: Growth inhibition of human SN12C cells at 10 uM relative to control; assay type: functional; conditions: read-out: GI
[42] = system: OVCAR-4; assay: Growth inhibition of human OVCAR-4 cells at 10 uM relative to control; assay type: functional; conditions: read-out: GI
[43] = system: T47D; assay: Growth inhibition of human T47D cells at 10 uM relative to control; assay type: functional; conditions: read-out: GI
[44] = system: IGROV-1; assay: Growth inhibition of human IGROV-1 cells at 10 uM relative to control; assay type: functional; conditions: read-out: GI
[45] = system: SK-MEL-2; assay: Growth inhibition of human SK-MEL-2 cells at 10 uM relative to control; assay type: functional; conditions: read-out: GI
[46] = system: UACC-62; assay: Growth inhibition of human UACC-62 cells at 10 uM relative to control; assay type: functional; conditions: read-out: GI
[47] = system: SW-620; assay: Growth inhibition of human SW-620 cells at 10 uM relative to control; assay type: functional; conditions: read-out: GI
[48] = system: DU-145; assay: Growth inhibition of human DU-145 cells at 10 uM relative to control; assay type: functional; conditions: read-out: GI
[49] = system: NCI-H322M; assay: Growth inhibition of human NCI-H322M cells at 10 uM relative to control; assay type: functional; conditions: read-out: GI
[50] = system: SK-OV-3; assay: Growth inhibition of human SK-OV-3 cells at 10 uM relative to control; assay type: functional; conditions: read-out: GI
[51] = system: A549; assay: Growth inhibition of human A549 cells at 10 uM relative to control; assay type: functional; conditions: read-out: GI
[52] = system: CCRF-CEM; assay: Growth inhibition of human CCRF-CEM cells at 10 uM relative to control; assay type: functional; conditions: read-out: GI
[53] = system: NCI/ADR-RES; assay: Growth inhibition of human NCI/ADR-RES cells at 10 uM relative to control; assay type: functional; conditions: read-out: GI
[54] = system: UACC-257; assay: Growth inhibition of human UACC-257 cells at 10 uM relative to control; assay type: functional; conditions: read-out: GI
[55] = system: OVCAR-5; assay: Growth inhibition of human OVCAR-5 cells at 10 uM relative to control; assay type: functional; conditions: read-out: GI
[56] = system: U-251; assay: Growth inhibition of human U-251 cells at 10 uM relative to control; assay type: functional; conditions: read-out: GI
[57] = system: MOLT-4; assay: Growth inhibition of human MOLT-4 cells at 10 uM relative to control; assay type: functional; conditions: read-out: GI
[58] = system: SK-MEL-28; assay: Growth inhibition of human SK-MEL-28 cells at 10 uM relative to control; assay type: functional; conditions: read-out: GI
[59] = system: CAKI-1; assay: Growth inhibition of human CAKI-1 cells at 10 uM relative to control; assay type: functional; conditions: read-out: GI

CC1=CSC2=NC(/C=C/c3cccs3)=CC(c3cccs3)N12 (centres undefined)
< 10%: inhibition of growth at 10 µM [1] | inhibition of growth at 10 µM [2] | inhibition of growth at 10 µM [3] | inhibition of growth at 10 µM [4] | inhibition of growth at 10 µM [5] | inhibition of growth at 10 µM [6] | inhibition of growth at 10 µM [7] | inhibition of growth at 10 µM [8] | inhibition of growth at 10 µM [9] | inhibition of growth at 10 µM [12] | inhibition of growth at 10 µM [13] | inhibition of growth at 10 µM [14] | inhibition of growth at 10 µM [15] | inhibition of growth at 10 µM [16] | inhibition of growth at 10 µM [17] | inhibition of growth at 10 µM [18] | inhibition of growth at 10 µM [19] | inhibition of growth at 10 µM [20] | inhibition of growth at 10 µM [21] | inhibition of growth at 10 µM [22] | inhibition of growth at 10 µM [23] | inhibition of growth at 10 µM [24] | inhibition of growth at 10 µM [25] | inhibition of growth at 10 µM [26] | inhibition of growth at 10 µM [27] | inhibition of growth at 10 µM [28] | inhibition of growth at 10 µM [29] | inhibition of growth at 10 µM [30] | inhibition of growth at 10 µM [31] | inhibition of growth at 10 µM [32] | inhibition of growth at 10 µM [33] | inhibition of growth at 10 µM [34] | inhibition of growth at 10 µM [35] | inhibition of growth at 10 µM [36] | inhibition of growth at 10 µM [37] | inhibition of growth at 10 µM [38] | inhibition of growth at 10 µM [39] | inhibition of growth at 10 µM [40] | inhibition of growth at 10 µM [41] | inhibition of growth at 10 µM [42] | inhibition of growth at 10 µM [43] | inhibition of growth at 10 µM [44] | inhibition of growth at 10 µM [45] | inhibition of growth at 10 µM [46] | inhibition of growth at 10 µM [47] | inhibition of growth at 10 µM [48] | inhibition of growth at 10 µM [49] | inhibition of growth at 10 µM [50] | inhibition of growth at 10 µM [51] | inhibition of growth at 10 µM [52] | inhibition of growth at 10 µM [53] | inhibition of growth at 10 µM [54] | inhibition of growth at 10 µM [55] | inhibition of growth at 10 µM [56] | inhibition of growth at 10 µM [57] | inhibition of growth at 10 µM [58] | inhibition of growth at 10 µM [59]
13.3%: inhibition of growth at 10 µM [11]
39.82 µg/mL: IC50 [10]
